In brackets after ≈: the same amount, converted by molar mass.
Assays:
[1] = test system: HeLa; assay: Cytotoxicity against human HeLa cells after 24 to 48 hrs by MTT assay; assay type: functional, cell-based
[2] = test system: Streptococcus gordonii; assay: Antibacterial activity against Streptococcus gordonii 10558 after 24 hrs by agar diffusion method; assay type: functional; conditions: Streptococcus gordonii, 10558, 24 h
[3] = test system: Streptococcus sobrinus; assay: Antibacterial activity against Streptococcus sobrinus 6715 after 24 hrs by agar diffusion method; assay type: functional; conditions: Streptococcus sobrinus, 6715, 24 h
[4] = test system: Actinomyces naeslundii; assay: Antimicrobial activity against Actinomyces naeslundii 12104 after 24 hrs by agar diffusion method; assay type: functional; conditions: Actinomyces naeslundii, 12104, 24 h
[5] = test system: Streptococcus oralis; assay: Antibacterial activity against Streptococcus oralis PB182 after 24 hrs by agar diffusion method; assay type: functional; conditions: PB182, 24 h
[6] = test system: Staphylococcus aureus; assay: Antibacterial activity against Staphylococcus aureus 25923 after 24 hrs by agar diffusion method; assay type: functional; conditions: Staphylococcus aureus, 25923, 24 h
[7] = test system: Streptococcus mutans; assay: Antibacterial activity against Streptococcus mutans UA159 assessed as total biofilm adherence inhibition after 18 hrs by microtechnique; assay type: functional
[8] = test system: Streptococcus sobrinus; assay: Antibacterial activity against Streptococcus sobrinus 6715 assessed as total biofilm adherence inhibition after 18 hrs by microtechnique; assay type: functional
[9] = test system: Streptococcus mutans; assay: Antibacterial activity against Streptococcus mutans UA159 after 24 hrs by agar diffusion method; assay type: functional; conditions: UA159, 24 h

MIC [2]	MIC [3]	MIC [4]	MIC [5]	MIC [6]	MIC [9]	Structure (SMILES)	IC50 [1]	MBC [2]	MBC [3]	MBC [4]	MBC [5]	MBC [6]	Activity [7]	Activity [8]	MBC [9]
						CC(C)=CCC1=C(O)[C@@]2(C(=O)c3ccccc3)C(=O)[C@](CC=C(C)C)(C[C@H](CC=C(C)C)C2(C)C)C1=O	3.3 µM								
1.65 µg/mL (≈ 3.18 µM)	3.3 µg/mL (≈ 6.36 µM)	1.65 µg/mL (≈ 3.18 µM)	1.65 µg/mL (≈ 3.18 µM)	0.73 µg/mL (≈ 1.41 µM)	3.3 µg/mL (≈ 6.36 µM)	CC(C)=CC[C@H]1C[C@@]2(CC=C(C)C)C(=O)[C@](C(=O)c3ccccc3)(C(=O)C3=C2O[C@H](C(C)(C)O)C3)C1(C)C [HYPERIBONE A]	0.176 µM	26 µg/mL (≈ 50.1 µM)	53 µg/mL (≈ 102 µM)	6.6 µg/mL (≈ 12.7 µM)	26 µg/mL (≈ 50.1 µM)	5.85 µg/mL (≈ 11.3 µM)	1.65 µg/mL	1.65 µg/mL	53 µg/mL (≈ 102 µM)
